Data from article PMC8073777, “Design, Synthesis, Biological Evaluation and In Silico Studies of Pyrazole-Based NH2-Acyl Oseltamivir Analogues as Potent Neuraminidase Inhibitors” (Pharmaceuticals, 2021).

target: A/H3N2 influenza NA (Influenza A virus (H3N2), UniProt Q91IQ5); format: biochemical, A/H3N2 influenza virus (clinical isolate from Hong Kong); details: 10 µM

Structure (SMILES)	Inhibitory rate against A/H3N2 influenza NA [%]
CCC(CC)O[C@@H]1C=C(C(=O)O)C[C@H](NC(=O)c2cc(-c3ccc(OC)cc3)n[nH]2)[C@H]1NC(C)=O [Compound 12e, (3R,4R,5S)-4-acetamido-5-(3-(4-methoxyphenyl)-1H-pyrazole-5-carboxamido)-3-(pentan-3-yloxy) cyclohex-1-ene-1-carboxylic acid]	42.02
CCC(CC)O[C@@H]1C=C(C(=O)O)C[C@H](NC(=O)c2cc(-c3ccccc3)n[nH]2)[C@H]1NC(C)=O [Compound 12a, (3R,4R,5S)-4-acetamido-3-(pentan-3-yloxy)-5-(3-phenyl-1H-pyrazole-5-carboxamido) cyclohex-1-ene-1-carboxylic acid]	42.81
CCC(CC)O[C@@H]1C=C(C(=O)O)C[C@H](NC(=O)c2cc(C3CC3)n(-c3ccc(C(F)(F)F)cc3)n2)[C@H]1NC(C)=O [Compound 24e, (3R,4R,5S)-4-acetamido-5-(5-cyclopropyl-1-(4-(trifluoromethyl)phenyl)-1H-pyrazole-3-carboxamido)-3-(pentan-3-yloxy) cyclohex-1-ene-1-carboxylic acid]	44.47
CCC(CC)O[C@@H]1C=C(C(=O)O)C[C@H](NC(=O)c2cc(C3CC3)n(-c3ccc(Br)cc3)n2)[C@H]1NC(C)=O [Compound 24d, (3R,4R,5S)-4-acetamido-5-(1-(4-bromophenyl)-5-cyclopropyl-1H-pyrazole-3-carboxamido)-3-(pentan-3-yloxy) cyclohex-1-ene-1-carboxylic acid]	42.68
CCC(CC)O[C@@H]1C=C(C(=O)O)C[C@H](NC(=O)c2cc(C3CC3)nn2-c2ccccc2C)[C@H]1NC(C)=O [Compound 26b, (3R,4R,5S)-4-acetamido-5-(3-cyclopropyl-1-(o-tolyl)-1H-pyrazole-5-carboxamido)-3-(pentan-3-yloxy) cyclohex-1-ene-1-carboxylic acid]	72.80
CCC(CC)O[C@@H]1C=C(C(=O)O)C[C@H](NC(=O)c2cc(C3CC3)n(-c3ccccc3)n2)[C@H]1NC(C)=O [Compound 24a, (3R,4R,5S)-4-acetamido-5-(5-cyclopropyl-1-phenyl-1H-pyrazole-3-carboxamido)-3-(pentan-3-yloxy) cyclohex-1-ene-1-carboxylic acid]	30.57
CCC(CC)O[C@@H]1C=C(C(=O)O)C[C@H](NC(=O)c2cnn(Cc3cccc(Cl)c3)c2)[C@H]1NC(C)=O [Compound 6c, (3R,4R,5S)-4-acetamido-5-(1-(3-chlorobenzyl)-1H-pyrazole-4-carboxamido)-3-(pentan-3-yloxy) cyclohex-1-ene-1-carboxylic acid]	23.88
CCC(CC)O[C@@H]1C=C(C(=O)O)C[C@H](NC(=O)c2cc(-c3cccs3)n[nH]2)[C@H]1NC(C)=O [Compound 12f, (3R,4R,5S)-4-acetamido-3-(pentan-3-yloxy)-5-(3-(thiophen-2-yl)-1H-pyrazole-5-carboxamido) cyclohex-1-ene-1-carboxylic acid]	40.02
CCC(CC)O[C@@H]1C=C(C(=O)O)C[C@H](NC(=O)c2cnn(-c3ccc(C)cc3)c2)[C@H]1NC(C)=O [Compound 6i, (3R,4R,5S)-4-acetamido-3-(pentan-3-yloxy)-5-(1-(p-tolyl)-1H-pyrazole-4-carboxamido) cyclohex-1-ene-1-carboxylic acid]	52.31
CCC(CC)O[C@@H]1C=C(C(=O)O)C[C@H](N)[C@H]1NC(C)=O [OC, oseltamivir carboxylate, reference compound]	97.46
CCC(CC)O[C@@H]1C=C(C(=O)O)C[C@H](NC(=O)c2cc(-c3ccc(C(F)(F)F)cc3)n[nH]2)[C@H]1NC(C)=O [Compound 12d, (3R,4R,5S)-4-acetamido-3-(pentan-3-yloxy)-5-(3-(4-(trifluoromethyl)phenyl)-1H-pyrazole-5-carboxamido) cyclohex-1-ene-1-carboxylic acid]	46.7
CCC(CC)O[C@@H]1C=C(C(=O)O)C[C@H](NC(=O)c2cc(-c3ccc(Cl)cc3)n[nH]2)[C@H]1NC(C)=O [Compound 12b, (3R,4R,5S)-4-acetamido-5-(3-(4-chlorophenyl)-1H-pyrazole-5-carboxamido)-3-(pentan-3-yloxy) cyclohex-1-ene-1-carboxylic acid]	50.43
CCC(CC)O[C@@H]1C=C(C(=O)O)C[C@H](NC(=O)c2cc(-c3ccc(Cl)cc3)nn2CC2CCC2)[C@H]1NC(C)=O [Compound 16b, (3R,4R,5S)-4-acetamido-5-(3-(4-chlorophenyl)-1-(cyclobutylmethyl)-1H-pyrazole-5-carboxamido)-3-(pentan-3-yloxy) cyclohex-1-ene-1-carboxylic acid]	39.81
CCC(CC)O[C@@H]1C=C(C(=O)O)C[C@H](NC(=O)c2cnn(Cc3ccccc3Cl)c2)[C@H]1NC(C)=O [Compound 6b, (3R,4R,5S)-4-acetamido-5-(1-(2-chlorobenzyl)-1H-pyrazole-4-carboxamido)-3-(pentan-3-yloxy) cyclohex-1-ene-1-carboxylic acid]	18.88
CCC(CC)O[C@@H]1C=C(C(=O)O)C[C@H](NC(=O)c2cc(C3CC3)n(-c3ccccc3C)n2)[C@H]1NC(C)=O [Compound 24b, (3R,4R,5S)-4-acetamido-5-(5-cyclopropyl-1-(o-tolyl)-1H-pyrazole-3-carboxamido)-3-(pentan-3-yloxy) cyclohex-1-ene-1-carboxylic acid]	60.91
CCC(CC)O[C@@H]1C=C(C(=O)O)C[C@H](NC(=O)c2cnn(Cc3ccc(OC)cc3)c2)[C@H]1NC(C)=O [Compound 6f, (3R,4R,5S)-4-acetamido-5-(1-(4-methoxybenzyl)-1H-pyrazole-4-carboxamido)-3-(pentan-3-yloxy) cyclohex-1-ene-1-carboxylic acid]	26.79
CCC(CC)O[C@@H]1C=C(C(=O)O)C[C@H](NC(=O)c2cnn(Cc3ccc(C(F)(F)F)cc3)c2)[C@H]1NC(C)=O [Compound 6g, (3R,4R,5S)-4-acetamido-3-(pentan-3-yloxy)-5-(1-(4-(trifluoromethyl)benzyl)-1H-pyrazole-4-carboxamido) cyclohex-1-ene-1-carboxylic acid]	21.72
CCC(CC)O[C@@H]1C=C(C(=O)O)C[C@H](NC(=O)c2cnn(Cc3ccccc3)c2)[C@H]1NC(C)=O [Compound 6a, (3R,4R,5S)-4-acetamido-5-(1-benzyl-1H-pyrazole-4-carboxamido)-3-(pentan-3-yloxy) cyclohex-1-ene-1-carboxylic acid]	32.02
CCC(CC)O[C@@H]1C=C(C(=O)O)C[C@H](NC(=O)c2cc(-c3ccc(Cl)cc3)nn2CC2CC2)[C@H]1NC(C)=O [Compound 16a, (3R,4R,5S)-4-acetamido-5-(3-(4-chlorophenyl)-1-(cyclopropylmethyl)-1H-pyrazole-5-carboxamido)-3-(pentan-3-yloxy) cyclohex-1-ene-1-carboxylic acid]	31.50
CCC(CC)O[C@@H]1C=C(C(=O)O)C[C@H](NC(=O)c2cnn(-c3ccc(OC)cc3)c2)[C@H]1NC(C)=O [Compound 6j, (3R,4R,5S)-4-acetamido-5-(1-(4-methoxyphenyl)-1H-pyrazole-4-carboxamido)-3-(pentan-3-yloxy) cyclohex-1-ene-1-carboxylic acid]	34.15
CCC(CC)O[C@@H]1C=C(C(=O)O)C[C@H](NC(=O)c2cc(C3CC3)nn2-c2ccc(Br)cc2)[C@H]1NC(C)=O [Compound 26d, (3R,4R,5S)-4-acetamido-5-(1-(4-bromophenyl)-3-cyclopropyl-1H-pyrazole-5-carboxamido)-3-(pentan-3-yloxy) cyclohex-1-ene-1-carboxylic acid]	37.17
CCC(CC)O[C@@H]1C=C(C(=O)O)C[C@H](NC(=O)c2cc(-c3ccc(Cl)cc3)nn2CC2CCCCC2)[C@H]1NC(C)=O [Compound 16c, (3R,4R,5S)-4-acetamido-5-(3-(4-chlorophenyl)-1-(cyclohexylmethyl)-1H-pyrazole-5-carboxamido)-3-(pentan-3-yloxy) cyclohex-1-ene-1-carboxylic acid]	48.50
CCC(CC)O[C@@H]1C=C(C(=O)O)C[C@H](NC(=O)c2cnn(Cc3cccc(OC)c3)c2)[C@H]1NC(C)=O [Compound 6e, (3R,4R,5S)-4-acetamido-5-(1-(3-methoxybenzyl)-1H-pyrazole-4-carboxamido)-3-(pentan-3-yloxy) cyclohex-1-ene-1-carboxylic acid]	23.37
CCC(CC)O[C@@H]1C=C(C(=O)O)C[C@H](NC(=O)c2cnn(Cc3cccc([N+](=O)[O-])c3)c2)[C@H]1NC(C)=O [Compound 6d, (3R,4R,5S)-4-acetamido-5-(1-(3-nitrobenzyl)-1H-pyrazole-4-carboxamido)-3-(pentan-3-yloxy) cyclohex-1-ene-1-carboxylic acid]	12.26
CCC(CC)O[C@@H]1C=C(C(=O)O)C[C@H](NC(=O)c2cc(C3CC3)n(-c3cccc(C)c3)n2)[C@H]1NC(C)=O [Compound 24c, (3R,4R,5S)-4-acetamido-5-(5-cyclopropyl-1-(m-tolyl)-1H-pyrazole-3-carboxamido)-3-(pentan-3-yloxy) cyclohex-1-ene-1-carboxylic acid]	34.75
CCC(CC)O[C@@H]1C=C(C(=O)O)C[C@H](NC(=O)c2cnn(-c3ccccc3C)c2)[C@H]1NC(C)=O [Compound 6h, (3R,4R,5S)-4-acetamido-3-(pentan-3-yloxy)-5-(1-(o-tolyl)-1H-pyrazole-4-carboxamido) cyclohex-1-ene-1-carboxylic acid]	38.37
CCC(CC)O[C@@H]1C=C(C(=O)O)C[C@H](NC(=O)c2cc(C3CC3)nn2-c2cccc(C)c2)[C@H]1NC(C)=O [Compound 26c, (3R,4R,5S)-4-acetamido-5-(3-cyclopropyl-1-(m-tolyl)-1H-pyrazole-5-carboxamido)-3-(pentan-3-yloxy) cyclohex-1-ene-1-carboxylic acid]	31.53
